Data reported in publication PMC9151520 (Archives of Toxicology, 2022).
Values joined by “and” are separate entries in the source; they are usually repeats but may differ in a detail not shown here. Equal entries are not always repeated. Where two headings read alike, the source gives them in different places.

Tests used:
[1] = in vitro; settings: male, Sprague Dawley, rat, microsomes, pH 7.4
[2] = test system: p53 signaling (p53RE-bla HCT-116 cells); assay: cells; type: cell-based
[3] = rat
[4] = test system: p53 signaling (p53RE-bla HCT-116 cells); assay: cells; settings: Homo sapiens
[5] = test system: p53RE-bla HCT-116 cells
[6] = test system: p53 signaling (p53RE-bla HCT-116 cells); assay: cells; type: cell-based; remark: listed apart in the source
[7] = test system: p53 signaling (p53RE-bla HCT-116 cells)
[8] = test system: p53 signaling (p53RE-bla HCT-116 cells); assay: cells; type: cell-based; design: efficacy: unit not given here; settings: for Emax: HCT-116, read-out: efficacy
[9] = test system: p53 signaling (p53RE-bla HCT-116 cells); remark: listed apart in the source
[10] = test system: p53 signaling (p53RE-bla HCT-116 cells); assay: cells; settings: Homo sapiens; remark: listed apart in the source
[11] = HCT-116, read-out: p53 activation EC50, cherry pick confirmation
[12] = HCT-116, read-out: p53 activation EC50, primary screening
[13] = HCT-116, read-out: p53 activation efficacy, cherry pick confirmation
[14] = HCT-116, read-out: p53 activation efficacy, primary screening
[15] = HCT-116, read-out: p53 activation EC50, HLM

## Cc1cc(=O)n(-c2ccccc2)n1C [antipyrine, reference compound]
[1]
  half-life: > 120 min

## c1ccc2c(c1)[nH]c1cnccc12 [Norharman]
[2]
  EC50: Inactive
[3]
  Depletion after 16 h of incubation with cells: 85.03 ± 0.42%
[4]; HCT-116
  EC50: 28.1 µM
[4]; HCT-116, read-out: efficacy
  Emax: 73.8%
[4]; [11]
  EC50: 29.6 µM
[4]; [12]
  EC50: 32.6 µM
[4]; [13]
  Emax: 71%
[5]
  Viability EC50, cherry pick confirmation: inactive
  Viability EC50, primary screening: inactive
  Viability efficacy, cherry pick confirmation: inactive
  Viability efficacy, primary screening: inactive
[6]
  p53 activation EC50, cherry pick confirmation: inactive
  p53 activation efficacy, cherry pick confirmation: inactive
[6]; Homo sapiens, HCT-116, read-out: p53 activation EC50, primary screening
  EC50: 41.4 µM
[7]
  p53 activation EC50, cherry pick confirmation: inactive
  p53 activation EC50, primary screening: inactive
  p53 activation efficacy, cherry pick confirmation: inactive
  p53 activation efficacy, primary screening: inactive
[8]; Homo sapiens, HCT-116
  EC50: 20 µM
[8]; Homo sapiens
  Emax: 76.4%

## COc1c2ccoc2cc2oc(=O)ccc12 [5-Methoxypsoralen]
[2]
  EC50: Inactive
[3]
  Depletion after 16 h of incubation with cells: 45.7 ± 3.67%
[4]; HCT-116
  EC50: 16.4 µM
[4]; HCT-116, read-out: efficacy
  Emax: 72.3%
[4]; [11]
  EC50: 9.45 µM
[4]; [12]
  EC50: 20.9 µM
[4]; [13]
  Emax: 62.5%
[4]; [14]
  Emax: 81.3%
[1]
  half-life: 21.1 ± 3.72 min
[5]
  Viability EC50, cherry pick confirmation: inactive
  Viability EC50, primary screening: inactive
  Viability efficacy, cherry pick confirmation: inactive
  Viability efficacy, primary screening: inactive
[6]
  p53 activation EC50, cherry pick confirmation: inactive
  p53 activation EC50, primary screening: inactive
  p53 activation efficacy, cherry pick confirmation: inactive
  p53 activation efficacy, primary screening: inactive
[7]
  p53 activation EC50, cherry pick confirmation: inactive
  p53 activation EC50, primary screening: inactive
  p53 activation efficacy, cherry pick confirmation: inactive
  p53 activation efficacy, primary screening: inactive
[8]; Homo sapiens, HCT-116
  EC50: 13.2 µM
[8]; Homo sapiens
  Emax: 75%

## CCOP(=O)(SC(C)CC)N1CCSC1=O (stereo not drawn) [Fosthiazate]
[1]
  half-life: 15.2 ± 1.93 min

## Cc1nc(N(C)C)nc(OC(=O)N(C)C)c1C [Pirimicarb]
[1]
  half-life: 11.7 ± 0.52 min

## COP(=S)(OC)SCn1nnc2ccccc2c1=O [Azinphos-methyl]
[2]
  efficacy: 6.6 ± 0.91 ( 57.05 ± 12.27 ) %
[2]; Homo sapiens, HCT-116, 0.5 h
  EC50: 6.6 µM
[9]
  p53 activation efficacy: 77.2775 and 58.65
[3]
  Depletion after 16 h of incubation with cells: 94.04 ± 0.16%
[4]; HCT-116
  EC50: 11.6 µM
[5]
  Viability EC50: inactive
  Viability efficacy: inactive
[6]
  p53 activation EC50: inactive
  p53 activation efficacy: inactive
[7]
  p53 activation EC50: inactive
[10]; HCT-116, read-out: p53 activation EC50
  EC50: 14.9 µM
[8]
  efficacy: 7.29 ± 2.15 ( 104.64 ± 29.38 ) %
[8]; Homo sapiens, HCT-116
  EC50: 7.29 µM

## CCOP(=S)(OCC)Oc1ccc([N+](=O)[O-])cc1 [Parathion]
[2]
  EC50: Inactive
[3]
  Depletion after 16 h of incubation with cells: 98.86 ± 0.34%
[4]; HCT-116
  EC50: 1.11 µM
[4]; HCT-116, read-out: efficacy
  Emax: 36.3%
[5]
  Viability EC50, HLM: inactive
  Viability EC50, No MS: inactive
  Viability EC50, RLM: inactive
  Viability Efficacy, HLM: inactive
  Viability Efficacy, No MS: inactive
  Viability Efficacy, RLM: inactive
[6]
  p53 activation EC50, No MS: inactive
  p53 activation Efficacy, No MS: inactive
[7]
  p53 activation EC50, HLM: inactive
[10]; [15]
  EC50: 1.2 µM
[8]; Homo sapiens, HCT-116
  EC50: 1.45 µM
[8]; Homo sapiens
  Emax: 35.6%

## COP(=S)(OC)Oc1cc(Cl)c(I)cc1Cl [Iodenphos]
[2]; Homo sapiens, HCT-116, 0.5 h
  EC50: 24.2 µM
[9]
  p53 activation efficacy: 81.587 and 107.715
[9]; read-out: p53 activation EC50
  EC50: 26.6 µM
[3]
  Depletion after 16 h of incubation with cells: 99.99 ± 0%
[4]; HCT-116
  EC50: 32.2 µM
[4]; HCT-116, read-out: efficacy
  Emax: 84.9%
[5]
  Viability EC50: inactive
  Viability efficacy: inactive
[6]
  p53 activation EC50: inactive
  p53 activation efficacy: inactive
[7]
  p53 activation EC50: inactive
[10]; HCT-116, read-out: p53 activation efficacy
  Emax: 54.2%
[8]; Homo sapiens, HCT-116
  EC50: 37 µM

## CCOP(=S)(OCC)SCSCC [Phorate]
[1]
  half-life: 104 ± 22.4 min

## Cc1cc(=O)oc2cc(O)ccc12 [4-Methylumbelliferone]
[2]
  EC50: Inactive
[3]
  Depletion after 16 h of incubation with cells: 46.53 ± 5.89%
[4]; HCT-116
  EC50: 25.2 µM
[4]; HCT-116, read-out: EC50, p53 activation, cherry pick confirmation
  EC50: 25.9 µM
[4]; HCT-116, read-out: Efficacy, p53 activation, cherry pick confirmation
  Emax: 89.9%
[4]; HCT-116, read-out: efficacy
  Emax: 99.5%
[1]
  half-life: 19.1 min
[5]
  EC50, viability, cherry pick confirmation: inactive
  EC50, viability, primary screening: inactive
  Efficacy, viability, cherry pick confirmation: inactive
  Efficacy, viability, primary screening: inactive
[6]
  EC50, p53 activation, primary screening: inactive
  Efficacy, p53 activation, primary screening: inactive
[6]; Homo sapiens, HCT-116, read-out: EC50, p53 activation, cherry pick confirmation
  EC50: 18.2 µM
[6]; Homo sapiens, HCT-116, read-out: Efficacy, p53 activation, cherry pick confirmation
  Emax: 30%
[7]
  EC50, p53 activation, cherry pick confirmation: inactive
  Efficacy, p53 activation, cherry pick confirmation: inactive
[8]; Homo sapiens, HCT-116
  EC50: 24.2 µM
[8]; Homo sapiens
  Emax: 114%

## OCCN(CCO)c1nc(N2CCCCC2)c2nc(N(CCO)CCO)nc(N3CCCCC3)c2n1 [Dipyridamole, reference compound]
[2]; Homo sapiens, HCT-116, 0.5 h
  EC50: 4.36 µM
[2]; Homo sapiens, HCT-116, read-out: efficacy
  Emax: 174%
[1]
  half-life: 7.32 ± 0.59 min
[8]; Homo sapiens, HCT-116
  EC50: 5.28 µM

## CCOP(=O)(NC(C)C)Oc1ccc(SC)c(C)c1 (stereo not drawn) [Fenamiphos]
[2]
  efficacy: 0.37 ± 0.15 ( 33.54 ± 3.04 ) %
[2]; Homo sapiens, HCT-116, 0.5 h
  EC50: 0.37 µM
[9]; read-out: p53 activation EC50, RLM
  EC50: 0.958 µM
[3]
  Depletion after 16 h of incubation with cells: 99.41 ± 0.07%
[4]; HCT-116
  EC50: 1.5 µM
[4]; HCT-116, read-out: p53 activation EC50, RLM
  EC50: 1.55 µM
[5]
  Viability EC50, HLM: inactive
  Viability EC50, No MS: inactive
  Viability EC50, RLM: inactive
  Viability Efficacy, HLM: inactive
  Viability Efficacy, No MS: inactive
  Viability Efficacy, RLM: inactive
[6]
  p53 activation EC50, No MS: inactive
  p53 activation Efficacy, No MS: inactive
[7]
  p53 activation EC50, HLM: inactive
[10]; [15]
  EC50: 1.49 µM
[8]
  efficacy: 1.34 ± 0.33 ( 75.12 ± 11.54 ) %
[8]; Homo sapiens, HCT-116
  EC50: 1.34 µM

## CCSC(=O)N1CCCCCC1 [Molinate]
[2]
  EC50: Inactive
[3]
  Depletion after 16 h of incubation with cells: 97.58 ± 0.19%
[4]; HCT-116
  EC50: 0.35 µM
[4]; HCT-116, read-out: efficacy
  Emax: 40.5%
[4]; [11]
  EC50: 0.355 µM
[4]; [12]
  EC50: 1.85 µM
[4]; [13]
  Emax: 39.9%
[4]; [14]
  Emax: 45.3%
[1]
  half-life: 12 ± 0.18 min
[5]
  Viability EC50, cherry pick confirmation: inactive
  Viability EC50, primary screening: inactive
  Viability efficacy, cherry pick confirmation: inactive
  Viability efficacy, primary screening: inactive
[6]
  p53 activation EC50, cherry pick confirmation: inactive
  p53 activation EC50, primary screening: inactive
  p53 activation efficacy, cherry pick confirmation: inactive
  p53 activation efficacy, primary screening: inactive
[7]
  p53 activation EC50, cherry pick confirmation: inactive
  p53 activation EC50, primary screening: inactive
  p53 activation efficacy, cherry pick confirmation: inactive
  p53 activation efficacy, primary screening: inactive
[8]; Homo sapiens, HCT-116
  EC50: 0.3 µM
[8]; Homo sapiens
  Emax: 44.1%

## CCOP(=S)(NC(C)C)Oc1ccccc1C(=O)OC(C)C (stereo not drawn) [Isofenphos]
[2]
  EC50: Inactive
[3]
  Depletion after 16 h of incubation with cells: 88.45 ± 1.49%
[4]; HCT-116
  EC50: 0.75 µM
[4]; HCT-116, read-out: efficacy
  Emax: 42.6%
[4]; [11]
  EC50: 0.777 µM
[4]; [13]
  Emax: 42.6%
[1]
  half-life: 1.25 ± 0.47 min
[5]
  Viability EC50, cherry pick confirmation: inactive
  Viability EC50, primary screening: inactive
  Viability efficacy, cherry pick confirmation: inactive
  Viability efficacy, primary screening: inactive
[6]
  p53 activation EC50, cherry pick confirmation: inactive
  p53 activation EC50, primary screening: inactive
  p53 activation efficacy, cherry pick confirmation: inactive
  p53 activation efficacy, primary screening: inactive
[7]
  p53 activation EC50, cherry pick confirmation: inactive
  p53 activation efficacy, cherry pick confirmation: inactive
[8]; Homo sapiens, HCT-116
  EC50: 0.81 µM
[8]; Homo sapiens
  Emax: 54.3%

## O=C1CC2(CCCC2)CC(=O)N1CCCCN1CCN(c2ncccn2)CC1 [buspirone, reference compound]
[1]
  half-life: 7.2 ± 2.3 min

## CCN(CC)C(=O)SCc1ccc(Cl)cc1 [Thiobencarb]
[2]; Homo sapiens, HCT-116, 0.5 h
  EC50: 1.68 µM
[9]
  p53 activation efficacy: 51.3593
[9]; read-out: p53 activation EC50
  EC50: 1.63 µM
[3]
  Depletion after 16 h of incubation with cells: 98.6 ± 0.04%
[4]; HCT-116
  EC50: 5.52 µM
[4]; HCT-116, read-out: efficacy
  Emax: 71.8%
[1]
  half-life: 1.48 ± 0.54 min
[5]
  Viability EC50: inactive
  Viability efficacy: inactive
[6]
  p53 activation EC50: inactive
  p53 activation efficacy: inactive
[7]
  p53 activation EC50: inactive
[8]; Homo sapiens, HCT-116
  EC50: 1.84 µM

## CCOP(=S)(OCC)Oc1cnc2ccccc2n1 [Quinalphos]
[2]
  EC50: Inactive
[3]
  Depletion after 16 h of incubation with cells: 96.66 ± 0.83%
[4]; HCT-116
  EC50: 9.46 µM
[4]; HCT-116, read-out: efficacy
  Emax: 32.7%
[4]; [11]
  EC50: 7.65 µM
[4]; [13]
  Emax: 34.3%
[1]
  half-life: 2.49 ± 0.04 min
[5]
  Viability EC50, cherry pick confirmation: inactive
  Viability EC50, primary screening: inactive
  Viability efficacy, cherry pick confirmation: inactive
  Viability efficacy, primary screening: inactive
[6]
  p53 activation EC50, cherry pick confirmation: inactive
  p53 activation EC50, primary screening: inactive
  p53 activation efficacy, cherry pick confirmation: inactive
  p53 activation efficacy, primary screening: inactive
[7]
  p53 activation EC50, cherry pick confirmation: inactive
  p53 activation efficacy, cherry pick confirmation: inactive
[8]
  EC50: Inactive
